Several values for one entry are separate records, joined by “and”; a condition that tells them apart may be missing. Equal entries are not always repeated.
Key:
[1] = in vivo efficacy, MDA-MB-435 (breastca) subcutaneous tumor model; design: species or system athymic mice; conditions: athymic, mouse, in vivo; MDA-MB-435, Early-SC, Q4D X3, intravenous
Method: (§1) NSC 694501 was evaluated for in vivo efficacy in athymic mice bearing 8 subcutaneous tumor models: LOX and UACC-62 (melanoma), OVCAR-3 and OVCAR-5 (ovarian ca), MDA-MB-435 (breastca), SF-295 and C-6 (glioma), and LS-174T (colonca). The models were selected on the basis of hollow fiber assays and in vitro time course assays.
(§2) A qDx5 schedule conferred better efficacy than a q4Dx3 schedule in each of the 4 models tested on two schedules. NSC 694501 was active over a wide dosage range in athymic mice using compound prepared fresh just prior to injection in 1% EtOH vehicle: On a qDx5 schedule, the maximum tolerated dose was approximately 120 μg/kg/dose and the minimum effective dose in one of the most sensitive models (SF-295) was 16 μg/kg/dose.

MDA-MB-435 (breastca) = assay: as above; design: species or system athymic mice; conditions: MDA-MB-435, Early-SC, Q4D X3, 0.45 mg/kg/dose, intravenous
Method: as §1, §2

C-6 (rat glioma) = assay: in vivo efficacy, C-6 (rat glioma) in nude rats; conditions: i.v.; for BW Loss / Growth Delay % [(T − C)/C] / Optimal % T/C: C-6, Early-SC, nude rats
SF-295 (glioma) = assay: in vivo efficacy, SF-295 (glioma) subcutaneous tumor model; design: species or system athymic mice; conditions: for BW Loss / Growth Delay % [(T − C)/C] / Optimal % T/C / value in parentheses in Growth Delay column / tumor free (tf): SF-295, Early-SC, intravenous
Method: as §1, §2

[2] = as above; design: species or system athymic mice; conditions: athymic, mouse, in vivo, SF-295, Early-SC
Method: as §1, §2

OVCAR-5 (ovarian ca) = assay: in vivo efficacy, OVCAR-5 (ovarian ca) subcutaneous tumor model; design: species or system athymic mice; conditions: OVCAR-5, Early-SC, intravenous
Method: as §1, §2

[3] = as above; design: species or system athymic mice; conditions: athymic, mouse, in vivo, OVCAR-5, Early-SC
Method: as §1, §2

LOX (melanoma) = assay: in vivo efficacy, LOX (melanoma) tumor model; design: species or system athymic mice; conditions: intravenous
Method: as §1, §2

[4] = in vivo efficacy, LOX (melanoma) tumor model; design: species or system athymic mice; conditions: athymic, mouse, in vivo, intravenous, QD X5, intravenous
Method: as §1, §2

[5] = in vivo efficacy, OVCAR-3 (ovarian ca) subcutaneous tumor model; design: species or system athymic mice; conditions: athymic, mouse, in vivo, OVCAR-3, Early-SC
Method: as §1, §2

OVCAR-3 (ovarian ca) = assay: as above; design: species or system athymic mice; conditions: OVCAR-3, Early-SC, intravenous
Method: as §1, §2

[6] = Early-SC, QD X5, 0.054 mg/kg/dose

C=C1C[C@H]2C=Nc3cc(OCCCOc4cc5c(cc4OC)C(=O)N4CC(=C)C[C@H]4C=N5)c(OC)cc3C(=O)N2C1 [NSC 694501]
MTD at 9 days [1]: 0.45 mg/kg
BW Loss (MDA-MB-435 (breastca)): 19.8%
Growth Delay % [(T − C)/C] (MDA-MB-435 (breastca)): 41%
Optimal % T/C (MDA-MB-435 (breastca)): 3%
tumor free (tf) (MDA-MB-435 (breastca)): 1 tf
BW Loss (C-6 (rat glioma); QD X5, 0.018 mg/kg): 0.0%
Growth Delay % [(T − C)/C] (C-6 (rat glioma); QD X5, 0.018 mg/kg): 13%
Optimal % T/C (C-6 (rat glioma); QD X5, 0.018 mg/kg): 56%
BW Loss (C-6 (rat glioma); QD X5, 0.027 mg/kg): 6.3%
Growth Delay % [(T − C)/C] (C-6 (rat glioma); QD X5, 0.027 mg/kg): 20%
Optimal % T/C (C-6 (rat glioma); QD X5, 0.027 mg/kg): 47%
BW Loss (C-6 (rat glioma); QD X5, 0.040 mg/kg): 0.8%
Growth Delay % [(T − C)/C] (C-6 (rat glioma); QD X5, 0.040 mg/kg): 49%
Optimal % T/C (C-6 (rat glioma); QD X5, 0.040 mg/kg): 24%
tolerability and efficacy (C-6 (rat glioma); nude rats bearing C-6, 27 and 40 μg/kg/dose, qDx5): well tolerated and efficacious
BW Loss (SF-295 (glioma); Q4D X3, 0.11 mg/kg/dose): 0.1%
Growth Delay % [(T − C)/C] (SF-295 (glioma); Q4D X3, 0.11 mg/kg/dose): 60%
Optimal % T/C (SF-295 (glioma); Q4D X3, 0.11 mg/kg/dose): 10%
value in parentheses in Growth Delay column (SF-295 (glioma); Q4D X3, 0.11 mg/kg/dose): 0.0 L
BW Loss (SF-295 (glioma); Q4D X3, 0.16 mg/kg/dose): 4.3%
Growth Delay % [(T − C)/C] (SF-295 (glioma); Q4D X3, 0.16 mg/kg/dose): 103%
Optimal % T/C (SF-295 (glioma); Q4D X3, 0.16 mg/kg/dose): 3%
value in parentheses in Growth Delay column (SF-295 (glioma); Q4D X3, 0.16 mg/kg/dose): 0.9 L
BW Loss (SF-295 (glioma); Q4D X3, 0.24 mg/kg/dose): 10.2%
Growth Delay % [(T − C)/C] (SF-295 (glioma); Q4D X3, 0.24 mg/kg/dose): 227%
Optimal % T/C (SF-295 (glioma); Q4D X3, 0.24 mg/kg/dose): 1 (1 tf) %
tumor free (tf) (SF-295 (glioma); Q4D X3, 0.24 mg/kg/dose): 1 (1 tf)
value in parentheses in Growth Delay column (SF-295 (glioma); Q4D X3, 0.24 mg/kg/dose): 3.2 L
BW Loss (SF-295 (glioma); Q4D X3, <0.30 mg/kg/dose): 24.0%
tumor free (tf) (SF-295 (glioma); Q4D X3, <0.30 mg/kg/dose, T/C unevaluable): ue (2 tf)
BW Loss (SF-295 (glioma); QD X5, 0.016 mg/kg/dose): 0.0%
Growth Delay % [(T − C)/C] (SF-295 (glioma); QD X5, 0.016 mg/kg/dose): 31%
Optimal % T/C (SF-295 (glioma); QD X5, 0.016 mg/kg/dose): 33%
BW Loss (SF-295 (glioma); QD X5, 0.024 mg/kg/dose): 3.6%
Growth Delay % [(T − C)/C] (SF-295 (glioma); QD X5, 0.024 mg/kg/dose): 61%
Optimal % T/C (SF-295 (glioma); QD X5, 0.024 mg/kg/dose): 12%
BW Loss (SF-295 (glioma); QD X5, 0.036 mg/kg/dose): 3.5%
Growth Delay % [(T − C)/C] (SF-295 (glioma); QD X5, 0.036 mg/kg/dose): 69%
Optimal % T/C (SF-295 (glioma); QD X5, 0.036 mg/kg/dose): 14%
BW Loss (SF-295 (glioma); QD X5, 0.054 mg/kg/dose): 4.7% and 2.8%
Growth Delay % [(T − C)/C] (SF-295 (glioma); QD X5, 0.054 mg/kg/dose): 165% and 206%
Optimal % T/C (SF-295 (glioma); QD X5, 0.054 mg/kg/dose): 2% and 0%
tumor free (tf) (SF-295 (glioma); QD X5, 0.054 mg/kg/dose): 1 tf
value in parentheses in Growth Delay column (SF-295 (glioma); QD X5, 0.054 mg/kg/dose): 2.6 L and 3.0 L
BW Loss (SF-295 (glioma); QD X5, 0.08 mg/kg/dose): 0.0%
Growth Delay % [(T − C)/C] (SF-295 (glioma); QD X5, 0.08 mg/kg/dose): 131%
Optimal % T/C (SF-295 (glioma); QD X5, 0.08 mg/kg/dose): 3%
value in parentheses in Growth Delay column (SF-295 (glioma); QD X5, 0.08 mg/kg/dose): 2.0 L
BW Loss (SF-295 (glioma); QD X5, 0.12 mg/kg/dose): 7.5% and 5.3%
Growth Delay % [(T − C)/C] (SF-295 (glioma); QD X5, 0.12 mg/kg/dose): 241% and 196%
Optimal % T/C (SF-295 (glioma); QD X5, 0.12 mg/kg/dose): 4 (4 tf) % and 2 (2 tf) %
tumor free (tf) (SF-295 (glioma); QD X5, 0.12 mg/kg/dose): 4 (4 tf) and 2 (2 tf)
value in parentheses in Growth Delay column (SF-295 (glioma); QD X5, 0.12 mg/kg/dose): 3.1 L and 3.2 L
minimum effective dose (SF-295 (glioma); SF-295, qDx5 schedule, athymic mice): 16 μg/kg/dose
MTD at 9 days ([2]; Q4D X3, intravenous): < 0.3 mg/kg
MTD at 5 days ([2]; QD X5, intravenous): 0.12 mg/kg
BW Loss (OVCAR-5 (ovarian ca); Q4D X3, 0.45 mg/kg/dose): 21.2%
Growth Delay % [(T − C)/C] (OVCAR-5 (ovarian ca); Q4D X3, 0.45 mg/kg/dose): 32%
Optimal % T/C (OVCAR-5 (ovarian ca); Q4D X3, 0.45 mg/kg/dose): 38%
BW Loss (OVCAR-5 (ovarian ca); QD X5, 0.081 mg/kg/dose): 2.6%
Growth Delay % [(T − C)/C] (OVCAR-5 (ovarian ca); QD X5, 0.081 mg/kg/dose): 102%
Optimal % T/C (OVCAR-5 (ovarian ca); QD X5, 0.081 mg/kg/dose): 13%
MTD at 9 days ([3]; Q4D X3, intravenous): 0.45 mg/kg
MTD at 5 days ([3]; QD X5, intravenous): 0.081 mg/kg
BW Loss (LOX (melanoma); [6]): 17.6%
Growth Delay % [(T − C)/C] (LOX (melanoma); [6]): 498%
Optimal % T/C (LOX (melanoma); [6]): 7%
value in parentheses in Growth Delay column (LOX (melanoma); [6]): 4.3 L
BW Loss (LOX (melanoma); IP, QD X5, 0.40 mg/kg/dose): 20.7%
ILS (LOX (melanoma); IP, QD X5, 0.40 mg/kg/dose): [−10% ILS]
MTD at 5 days ([4]; Early-SC): 0.054 mg/kg
MTD at 5 days ([4]; IP): 0.4 mg/kg
MTD at 9 days ([5]; Q4D X3, intravenous): 0.45 mg/kg
MTD at 5 days ([5]; QD X5, intravenous): 0.27 mg/kg
BW Loss (OVCAR-3 (ovarian ca); Q4D X3, 0.45 mg/kg/dose): 6.6% and 13.9%
Growth Delay % [(T − C)/C] (OVCAR-3 (ovarian ca); Q4D X3, 0.45 mg/kg/dose): 73% and 55%
Optimal % T/C (OVCAR-3 (ovarian ca); Q4D X3, 0.45 mg/kg/dose): 20% and 10%
BW Loss (OVCAR-3 (ovarian ca); QD X5, .27 mg/kg/dose): 7.9%
Growth Delay % [(T − C)/C] (OVCAR-3 (ovarian ca); QD X5, .27 mg/kg/dose): 114%
Optimal % T/C (OVCAR-3 (ovarian ca); QD X5, .27 mg/kg/dose): 9%
value in parentheses in Growth Delay column (OVCAR-3 (ovarian ca); QD X5, .27 mg/kg/dose): 1.9 L
